Source: paper PMC9322761, “Design, Synthesis and Biological Characterization of Histone Deacetylase 8 (HDAC8) Proteolysis Targeting Chimeras (PROTACs) with Anti-Neuroblastoma Activity” (International Journal of Molecular Sciences, 2022)
Where two headings read alike, the source gives them in different places.

Tests used:
HDAC8 [1] = molecular target: T1, HDAC8 (Homo sapiens, UniProt Q9BY41); experiment: In vitro HDAC8 activity assay (Fluor de Lys-HDAC8); type: biochemical; parameters: made in house; conditions: for SI (HDAC6/HDAC8): selectivity index, HDAC6 over HDAC8
T1 sequence (Q9BY41 1-377): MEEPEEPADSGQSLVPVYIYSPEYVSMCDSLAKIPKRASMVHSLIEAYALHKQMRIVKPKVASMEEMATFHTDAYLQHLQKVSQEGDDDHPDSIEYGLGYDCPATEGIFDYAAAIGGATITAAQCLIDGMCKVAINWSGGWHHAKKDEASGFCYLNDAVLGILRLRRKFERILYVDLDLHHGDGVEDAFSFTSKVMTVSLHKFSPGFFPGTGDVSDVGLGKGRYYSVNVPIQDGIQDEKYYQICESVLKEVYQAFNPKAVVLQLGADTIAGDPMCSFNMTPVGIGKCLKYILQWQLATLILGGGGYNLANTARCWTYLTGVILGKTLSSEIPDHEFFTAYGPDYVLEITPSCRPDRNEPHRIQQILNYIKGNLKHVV
Method: Recombinant hHDAC8 was produced by Romier et al. in Strasbourg. The HDAC8 activity assays were performed according to the commercial HDAC8 Fluorometric Drug Discovery Kit (Fluor de Lys(R)-HDAC8, BML-KI178) corresponding to the instructions of the manufacturer. As substrate a tetrapeptide connected to aminomethylcoumarin (AMC) H2N-Arg- His-Lys(Ac)-Lys(Ac)-AMC was synthesized as previously described. The enzyme was incubated for 90 min at 37 °C, with a substrate concentration of 50 µM and increasing concentrations of inhibitors. The stop-solution-containing inhibitor was added to stop the hHDAC8 activity, and Trypsin was added to release the AMC. The solution was incubated for 20 min at 37 °C to develop the assay.
(§1) Inhibition was measured at increasing concentration and IC50 was calculated by nonlinear regression with Origin 9.0G software.

HDAC1 = HDAC1 (Homo sapiens, UniProt Q13547); experiment: In vitro HDAC inhibitory activity assay, recombinant HDAC1 (fluorogenic substrate ZMAL); type: biochemical; parameters: purchased BPS Biosciences; conditions: for inhibition at 1 µM / inhibition at 10 µM: read-out: HDAC1 % inhib. at given conc.
Method: (§2) The in vitro testing on recombinant HDACs was performed as previously described. Recombinant human HDAC1 and −6 were purchased from BPS Biosciences. The enzyme inhibition was determined by using a reported homogenous fluorescence assay. […] Fluorescence intensity was measured at an excitation wavelength of 390 nm and an emission wavelength of 460 nm in a microtiter plate reader (BMG Polarstar).
as §1

HDAC6 = molecular target: T2, HDAC6 (Homo sapiens, UniProt Q9UBN7); experiment: In vitro HDAC inhibitory activity assay, recombinant HDAC6 (fluorogenic substrate ZMAL); type: biochemical; parameters: purchased BPS Biosciences; conditions: for inhibition at 1 µM / inhibition at 10 µM: read-out: HDAC6 % inhib. at given conc.
T2 sequence (Q9UBN7 1-1215): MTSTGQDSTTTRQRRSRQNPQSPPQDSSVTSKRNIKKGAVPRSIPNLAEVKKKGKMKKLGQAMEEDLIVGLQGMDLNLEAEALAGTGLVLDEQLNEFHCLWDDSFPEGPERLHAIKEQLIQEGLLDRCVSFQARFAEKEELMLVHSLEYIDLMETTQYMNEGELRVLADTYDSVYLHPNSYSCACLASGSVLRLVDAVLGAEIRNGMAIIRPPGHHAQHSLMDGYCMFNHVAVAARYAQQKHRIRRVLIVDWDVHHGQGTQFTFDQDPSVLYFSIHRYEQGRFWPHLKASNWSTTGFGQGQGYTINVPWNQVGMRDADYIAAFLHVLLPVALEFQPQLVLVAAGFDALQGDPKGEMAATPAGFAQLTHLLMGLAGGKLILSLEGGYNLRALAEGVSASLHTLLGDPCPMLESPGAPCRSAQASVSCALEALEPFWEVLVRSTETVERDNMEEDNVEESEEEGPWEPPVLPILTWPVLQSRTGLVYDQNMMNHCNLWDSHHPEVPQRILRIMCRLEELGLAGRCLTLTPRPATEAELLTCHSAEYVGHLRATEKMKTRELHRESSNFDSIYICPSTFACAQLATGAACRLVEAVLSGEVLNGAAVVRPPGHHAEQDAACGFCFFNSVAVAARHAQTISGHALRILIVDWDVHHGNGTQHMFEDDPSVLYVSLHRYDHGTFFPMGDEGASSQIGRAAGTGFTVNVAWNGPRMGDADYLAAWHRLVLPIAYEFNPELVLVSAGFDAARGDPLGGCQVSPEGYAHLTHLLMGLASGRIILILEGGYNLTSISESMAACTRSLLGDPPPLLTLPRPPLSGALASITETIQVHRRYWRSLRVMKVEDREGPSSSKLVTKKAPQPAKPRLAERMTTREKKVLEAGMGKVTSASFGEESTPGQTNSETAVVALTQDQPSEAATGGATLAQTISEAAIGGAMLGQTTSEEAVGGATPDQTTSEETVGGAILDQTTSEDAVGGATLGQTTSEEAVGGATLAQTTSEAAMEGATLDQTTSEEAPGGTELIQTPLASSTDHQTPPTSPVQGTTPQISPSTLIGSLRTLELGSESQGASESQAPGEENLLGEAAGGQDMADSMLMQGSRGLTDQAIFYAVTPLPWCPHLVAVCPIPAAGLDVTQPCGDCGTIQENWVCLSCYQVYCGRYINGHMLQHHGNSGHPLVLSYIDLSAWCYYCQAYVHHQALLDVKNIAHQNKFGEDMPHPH
Method: as §2, §1

SK-N-BE(2)-C cells = experiment: Colony formation assay in neuroblastoma cells; type: cell-based, human; conditions: 5 and 10 μM, treatment 96 h, then 6 days without treatment
Method: In order to measure the functional consequence of HDAC8 inhibition, two different cell lines were used: SK-N-BE(2)-C cells, which display MYCN amplification and non-functional p53; and IMR-32 cells having p53 wild type, which both respond with growth arrest and signs of neuronal differentiation upon knockdown or selective inhibition of HDAC8. Growth arrest was determined by colony formation and viability assays. Cells were treated with 5 and 10 μM of each of the CRBN_ based HDAC8 PROTACs having a triazole linker (CRBN_1d, CRBN_1e, CRBN_1f) for 96 h, followed by culturing for another 6 days without treatment (Figure 5A). This assesses whether the treatment impairs the clonogenic growth capacity of tumor cells, indicating effectiveness of compounds on the survival and proliferation of tumor cells.
In six-well plates, 500 cells were seeded and treated as indicated. Viable colonies were stained after a minimum of 10 days with crystal violet. For quantification, the mean intensity of each well of the 8-bit binary picture was measured with ImageJ software (U. S. National Institutes of Health, Bethesda, MD, USA; http://imagej.nih.gov/ij/ (accessed on 1 March 2022)).
Figure 5 (A) Neuroblastoma SK-N-BE(2)-C cells; Colony Assay, 10 days (compound treatment within first 96 h). Stained with crystal violet and quantified with ImageJ. (B,C) Trypan Blue assay for detection of dead cells. Neuroblastoma IMR-32 cells were either treated with 5 µM (B) or 10 µM (C). (D,E) Cell proliferation assessed via counting of viable cells. IMR-32 cells were either treated with 5 µM (D) or 10 µM (E) PROTACs. HDAC8i PCI-34501 served as a positive control, untreated (MEM) and solvent (DMSO) treated cells served as negative controls.

HDAC8 [2] = molecular target: T1, HDAC8; experiment: HDAC8 degradation in SK-N-BE(2)-C neuroblastoma cells (Western blot); type: cell-based; parameters: endogenous in cells; host or cells: SK-N-BE(2)-C; conditions: 24 h; cycloheximide 35 nM, PROTAC 10 μM
Method: Whole cell lysates from treated SK-N-BE(2)-C neuroblastoma cells were taken and the protein levels for HDAC8 and the acetylation of its substrate SMC3 were determined (Figure 6). As a control for HDAC6, we also assessed acetylation levels of α-tubulin. […] Western blot analysis was performed as described previously (Kolbinger et al.).
Figure 6 (A) SK-N-BE(2)-C neuroblastoma cells were treated for indicated time points with 10 µM of PROTACs. Degradation of HDAC8 and acetylation of HDAC8 target was analyzed via Western blot. (B) SK-N-BE(2)-C neuroblastoma cells were treated for 6 h with indicated concentrations of HyT_1p, CRBN_1b and HyT_1m. Acetylation of HDAC8 target SMC3 and HDAC6 target tubulin, as well as total HDAC8 levels, were assessed by Western blot. Quantified ac-SMC3 or ac-tubulin expression, respectively, was normalized to the respective tubulin loading control and to the solvent control (DMSO). This quantification is reflected by the numbers below each blot. […] Total HDAC6, total HDAC1, total HDAC8, and acetyl-histone H4 expression levels, were assessed by Western blot. Total GAPDH protein levels served as a loading control (LC). * unspecific bands obtained through reprobing of the membrane.

[3] = Table 2, inhibitors synthesized in this paper (S1)
[4] = Table 2, inhibitors synthesized in this paper (S1), read-out: HDAC1 IC50
[5] = Table 2, inhibitors synthesized in this paper (S1), read-out: HDAC6 IC50
[6] = Table 1, PROTACs, read-out: HDAC6 IC50

HDAC1, sequence (Q13547 whole entry): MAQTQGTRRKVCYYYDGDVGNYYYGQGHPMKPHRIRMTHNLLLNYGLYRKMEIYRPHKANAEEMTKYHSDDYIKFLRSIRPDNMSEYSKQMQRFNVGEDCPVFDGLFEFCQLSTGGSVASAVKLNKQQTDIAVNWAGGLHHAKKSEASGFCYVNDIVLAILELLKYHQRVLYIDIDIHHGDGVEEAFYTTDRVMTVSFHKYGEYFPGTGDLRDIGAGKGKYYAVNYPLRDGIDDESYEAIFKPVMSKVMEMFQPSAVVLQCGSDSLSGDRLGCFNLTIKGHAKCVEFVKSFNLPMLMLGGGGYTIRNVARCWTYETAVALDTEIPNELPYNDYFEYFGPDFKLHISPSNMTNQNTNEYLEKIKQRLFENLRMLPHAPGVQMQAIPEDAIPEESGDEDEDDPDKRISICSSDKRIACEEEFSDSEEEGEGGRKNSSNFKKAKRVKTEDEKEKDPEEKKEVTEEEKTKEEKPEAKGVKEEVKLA

| Structure (SMILES) | IC50 (HDAC8 [1]; Table 1, PROTACs) [nM] | SI (HDAC6/HDAC8) (HDAC8 [1]) | inhibition at 1 µM (HDAC1) [%] | inhibition at 10 µM (HDAC1) [%] | inhibition at 1 µM (HDAC6) [%] | inhibition at 10 µM (HDAC6) [%] | further results |
| --- | --- | --- | --- | --- | --- | --- | --- |
| COc1ccc(CNc2cc(C(=O)NO)ccc2OC)cc1 [2h] | – | – | – | – | – | – | IC50 (HDAC8 [1]; [3]): 10 ± 1 nM; IC50 (HDAC1; [4]): > 20000 nM; IC50 (HDAC6; [5]): 150 ± 1 nM |
| O=C(COc1ccc(CNc2cc(C(=O)NO)ccc2Cl)cc1)OCc1ccccc1 [2i] | – | – | – | – | – | – | IC50 (HDAC8 [1]; [3]): 410 ± 50 nM; IC50 (HDAC1; [4]): > 20000 nM; IC50 (HDAC6; [5]): 7400 ± 600 nM |
| COc1ccc(C(=O)NO)cc1NC(=O)c1ccc(NC(=O)CCCCCNc2cccc3c2C(=O)N(C2CCC(=O)NC2=O)C3=O)cc1 (stereo not shown) [CRBN_1a] | 90 ± 30 | 2 | – | – | – | – | IC50 (HDAC1): 4370 ± 650 nM; IC50 (HDAC6): 220 ± 60 nM |
| COc1ccc(C(=O)NO)cc1NC(=O)c1ccc(CNC(=O)CCCCCCCNc2cccc3c2C(=O)N(C2CCC(=O)NC2=O)C3=O)cc1 (stereo not shown) [CRBN_1c] | 150 ± 10 | 2 | 22.2 | 40.1 | – | – | IC50 (HDAC6): 250 ± 20 nM |
| O=C1CCC(N2C(=O)c3cccc(NC(=O)CCCCCn4cc(COc5ccc(CNc6cc(C(=O)NO)ccc6Cl)cc5)nn4)c3C2=O)C(=O)N1 (stereo not shown) [CRBN_1f] | 250 ± 30 | 5 | – | – | – | – | Effect on colony formation (SK-N-BE(2)-C cells): inactive; IC50 (HDAC1; Table 1, PROTACs, read-out: HDAC1 IC50): 10800 ± 700 nM; IC50 (HDAC6; [6]): 1300 ± 300 nM |
| O=C(COc1ccc(CNc2cc(C(=O)NO)ccc2Cl)cc1)NCCCCCNc1cccc2c1C(=O)N(C1CCC(=O)NC1=O)C2=O (stereo not shown) [CRBN_1g] | 590 ± 110 | – | 10.1 | 69 | 24.8 | 72.6 | – |
| O=C(COc1ccc(CNc2cc(C(=O)NO)ccc2Cl)cc1)NCCCOCCOCCOCCCNc1cccc2c1C(=O)N(C1CCC(=O)NC1=O)C2=O (stereo not shown) [CRBN_1h] | 330 ± 190 | – | – | – | 33.5 | 66.8 | IC50 (HDAC1): 3910 ± 480 nM |
| O=C(COc1ccc(C(=O)Nc2cc(C(=O)NO)ccc2Cl)cc1)NCCCOCCOCCOCCCNc1cccc2c1C(=O)N(C1CCC(=O)NC1=O)C2=O (stereo not shown) [CRBN_1i] | 650 ± 140 | – | 20.7 | 67.4 | 85.4 | 92.3 | – |
| O=C(COc1ccc(C(=O)Nc2cccc(C(=O)NO)c2)cc1)NCCCOCCOCCOCCCNc1cccc2c1C(=O)N(C1CCC(=O)NC1=O)C2=O (stereo not shown) [CRBN_1j] | 4840 ± 1050 | – | 13.9 | 60 | 46.2 | 80.9 | – |
| COc1ccc(C(=O)NO)cc1NC(=O)c1ccc(NC(=O)CCCCCCCNC(=O)CC23CC4CC(CC(C4)C2)C3)cc1 [HyT_1n] | 390 ± 30 | 2 | 38.6 | 30 | – | – | IC50 (HDAC6; [6]): 820 ± 50 nM |
| COc1ccc(C(=O)NO)cc1NC(=O)c1ccc(CNC(=O)CCCCCCCNC(=O)CC23CC4CC(CC(C4)C2)C3)cc1 [HyT_1o] | 90 ± 10 | 4 | 9.8 | 52.6 | – | – | IC50 (HDAC6; [6]): 370 ± 30 nM |
| Cc1ncsc1-c1ccc(CNC(=O)[C@@H]2C[C@@H](O)CN2C(=O)[C@@H](NC(=O)CCCCCNC(=O)COc2ccc(CNc3cc(C(=O)NO)ccc3Cl)cc2)C(C)(C)C)cc1 [VHL_1l] | 720 ± 150 | – | 6 | 45.5 | 8.3 | 72.4 | – |
| C[C@@H]1C[C@@H]([C@H](O)CC2CC(=O)NC(=O)C2)C(=O)[C@@H](C)C1 [cycloheximide, reference compound] | – | – | – | – | – | – | HDAC8 degradation with de novo protein synthesis inhibited (HDAC8 [2]): no effect |
